Experimental data as given in ChEMBL document CHEMBL5360610, “N-Alkyl Carbamoylimidazoles as Versatile Synthons for the Synthesis of Urea-Based PSMA Inhibitors” (ACS Med Chem Lett, 2023).
The source made the active and inactive calls. The calls are words filed in the database; no cut-off is given here.

What was measured:
[1] = biological target: T1, Glutamate carboxypeptidase 2 (Homo sapiens, UniProt Q04609); assay: Displacement of [18F]PSMA-1007 from human PSMA expressed in human LNCaP cells by competitive binding assay; type: cell-based
Target sequence in this assay (Q04609 whole entry): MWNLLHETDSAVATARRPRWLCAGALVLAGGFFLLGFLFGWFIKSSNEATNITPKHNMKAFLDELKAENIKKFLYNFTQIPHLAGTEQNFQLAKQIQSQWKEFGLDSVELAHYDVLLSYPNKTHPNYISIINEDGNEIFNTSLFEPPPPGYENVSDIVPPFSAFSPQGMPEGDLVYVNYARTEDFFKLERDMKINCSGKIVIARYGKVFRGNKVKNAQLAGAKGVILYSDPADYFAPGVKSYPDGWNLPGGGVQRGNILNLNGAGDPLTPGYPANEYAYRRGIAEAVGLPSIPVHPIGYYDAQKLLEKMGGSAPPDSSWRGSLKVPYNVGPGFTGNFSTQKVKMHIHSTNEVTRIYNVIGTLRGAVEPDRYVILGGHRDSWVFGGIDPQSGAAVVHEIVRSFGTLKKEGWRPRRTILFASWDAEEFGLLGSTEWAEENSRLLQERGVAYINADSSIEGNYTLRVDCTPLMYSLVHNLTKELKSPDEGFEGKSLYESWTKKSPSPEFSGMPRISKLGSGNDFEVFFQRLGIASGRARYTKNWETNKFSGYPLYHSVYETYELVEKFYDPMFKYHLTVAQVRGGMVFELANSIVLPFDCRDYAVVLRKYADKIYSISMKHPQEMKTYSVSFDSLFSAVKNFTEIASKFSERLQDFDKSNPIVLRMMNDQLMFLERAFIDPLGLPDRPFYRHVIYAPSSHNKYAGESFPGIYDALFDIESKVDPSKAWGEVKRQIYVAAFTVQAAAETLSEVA

[2] = biological target: T1, Glutamate carboxypeptidase 2; assay: Displacement of [18F]PSMA-1007 from human PSMA expressed in human LNCaP cells at 0.1 to 100000 nM by competitive binding assay; type: cell-based; details: dose 0.1-100000 nM
Target sequence in this assay (Q04609 whole entry, looked up): as the sequence (Q04609 whole entry) above

IC50 [1]	inhibition [2]	SMILES
13 nM		O=C(O)CC[C@H](CC(=O)N[C@@H](CCCCNC(=O)[C@H](Cc1ccccc1)NC(=O)COc1ccc(C[C@H](NC(=O)CCC(=O)CO/N=C/c2ccc(F)cc2)C(=O)O)cc1)C(=O)O)C(=O)O
4 nM		O=C(O)CC[C@H](NC(=O)N[C@@H](CCCCNC(=O)[C@H](Cc1ccc2ccccc2c1)NC(=O)[C@H]1CC[C@H](CNC(=O)[C@H](CCC(=O)O)NC(=O)[C@H](CCC(=O)O)NC(=O)c2ccc(F)nc2)CC1)C(=O)O)C(=O)O

Further lines, the compound ahead of its results:

SMILES	IC50 [1]	inhibition [2]
O=C(O)CC[C@H](NC(=O)N[C@@H](CCCC(=O)Nc1ccc(F)nc1)C(=O)O)C(=O)O	90 nM	
O=C(O)CC[C@H](NC(=O)N[C@@H](CCCC(=O)NCc1ccc(F)cc1)C(=O)O)C(=O)O	1500 nM	
O=C(Nc1scc(C(=O)O)c1C(=O)O)N[C@@H](CCCCNC(=O)c1cccc(F)n1)C(=O)O		inactive
O=C(Nc1scc(C(=O)O)c1C(=O)O)N[C@@H](CCCCNC(=O)c1ccc(F)cc1)C(=O)O		inactive
